Experiment [1] has as its target T1, interaction between GMPPNP-bound recombinant K-Ras4B G12C mutant protein and cRAF RAS-binding domain (cRAF-RBD) (Homo sapiens, UniProt P01116, G12C).
T1 construct: His-tag (N)
Put plainly: Inhibitory activity on interaction between KRAS G12C and cRAF (Alpha technology). The essentials:
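Alpha signal measured 1.5 h after adding cRAF-RBD (aa 50-132) and detection reagents to GMPPNP-bound KRAS G12C (aa 1-169) pretreated 1 h at 25° C with compound (pH 7.5 buffer). 0% inhibition = DMSO, 100% = GDP-loaded KRAS; IC50 by curve fit.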

In a further experiment the test system is MIA PaCa-2 cells. Briefly: Growth inhibition activity on KRAS-G12C mutant cell line (CellTiter-Glo 3D). The note with it: MIA PaCa-2, 3-day culture with compound. The class given is cell-based, human. The method in brief:
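IC50 (nM) derived from inhibition of luminescence (CellTiter-Glo 3D) relative to compound-free wells. Cells were seeded in U-bottom plates, grown 1 day, then exposed to compound for 3 days at 37 °C with 0.2% final DMSO.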

[2] abbreviates: GMPPNP-bound KRAS G12C incubated with compound 25° C. 1 hour, Table 2-1, read-out: IC50.
Where [3] appears, read: Homo sapiens, MIA PaCa-2, 72 h, Table 3-1.
Setting [4] is: IC50, GMPPNP-bound KRAS G12C incubated with compound 25° C. 1 hour, Table 2.
[5] abbreviates: IC50, GMPPNP-bound KRAS G12C incubated with compound 25° C. 1 hour, Table 2-1.
Setting [6] is: GMPPNP-bound KRAS G12C incubated with compound 25° C. 1 hour, Table 2, read-out: IC50.
Where [7] appears, read: Homo sapiens, MIA PaCa-2, 72 h, Table 3.

Like-named read-outs stand apart in the source and are kept apart here.

T1 sequence (P01116 with tags, fused parts or gaps isoform P01116-2 G12C): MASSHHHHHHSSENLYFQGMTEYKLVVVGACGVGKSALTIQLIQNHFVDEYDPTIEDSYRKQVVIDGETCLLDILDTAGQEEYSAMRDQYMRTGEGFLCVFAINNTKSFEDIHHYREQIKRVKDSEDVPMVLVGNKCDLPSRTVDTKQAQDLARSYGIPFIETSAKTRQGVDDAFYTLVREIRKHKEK

In the case of `Cn1cnc2c3c(c(C(F)(F)F)cc21)-c1cccn2c(C(=O)c4cc(F)c(NC(=O)/C=C/CN5C6CCC5CC6)c(F)c4)cc(c12)CCO3` [Example 236, (E)-4-(7-azabicyclo[2.2.1]-heptan-7-yl)-N-(2,6-difluoro-4-(9-methyl-7-(trifluoromethyl)-13,14-dihydro-9H-imidazo-[4″,5″:5′,6′]benzo[1′,2′: 2,3]oxocino[4,5,6-hi]-indolizine-2-carbonyl)-phenyl)but-2-enamide], the IC50 in experiment [1] (setting [2]) was 16.5 nM; with MIA PaCa-2 cells (setting [3]), 4.03 nM.

In the case of `CC1Cc2cc(C(=O)c3cc(F)c(NC(=O)/C=C/CNC4(C)COC4)c(F)c3)n3cccc(c23)-c2c(C(F)(F)F)cc3c(ncn3C)c2O1` (centres unmarked) [Example 130, (E)-N-(4-(9,13-dimethyl-7-(trifluoromethyl)-13,14-dihydro-9H-imidazo[4″,5″:5′,6′]benzo[1′,2′:2,3]oxocino[4,5,6-hi]indolizine-2-carbonyl)-2,6-difluorophenyl)-4-((3-methyloxetan-3-yl)amino)but-2-enamide], the results for the 50% inhibitory concentration (IC50) (in experiment [1] (setting [2]); in the experiment on MIA PaCa-2 cells (setting [3])) were 41.4 nM and 82.8 nM, respectively.

As for `CO[C@H]1CC[C@H](NC/C=C/C(=O)Nc2c(F)cc(C(=O)c3cn4c5c(cccc35)-c3c(C)cc5c(nc(C)n5C)c3OCCC4)cc2F)CC1` (single isomer, unassigned) [Example 15-1, (E)-N-(2,6-difluoro-4-(6,8,9-trimethyl-13,14-dihydro-8H,12H-imidazo[4″,5″:3′,4′]benzo[1′,2″:8,9][1,5]oxazonino[7,6,5-hi]indole-2-carbonyl)phenyl)-4-(((1r,4r)-4-methoxycyclohexyl)amino)but-2-enamide], the IC50 in experiment [1] (setting [4]) was 3900 nM; in the experiment on MIA PaCa-2 cells (Table 3), 2700 nM.

Consider `Cc1cc2c(nc(C)n2C)c2c1-c1cccc3c(C(=O)c4cc(F)c(NC(=O)/C=C/CN5CC[C@H]5CO)c(F)c4)cn(c13)CCN2C` [Example 132, (S,E)-N-(2,6-difluoro-4-(6,8,9,11-tetramethyl-8,11,12,13-tetrahydro-imidazo[4″,5″:5′,6′]-benzo[1′,2′:5,6][1,4]-diazocino[7,8,1-hi]indole-2-carbonyl)phenyl)-4-(2-(hydroxymethyl)azetidin-1-yl)but-2-enamide], for which the IC50 in experiment [1] (setting [5]) was 10.8 nM; in the experiment on MIA PaCa-2 cells (setting [3]) it was 16.7 nM.

Take `CN1CCc2cc(C(=O)c3cc(F)c(NC(=O)/C=C/CNC4(C)CC4)c(F)c3)n3cccc(c23)-c2c(C(F)(F)F)cc3c(ncn3C)c21` [Example 214, (E)-N-(4-(9.12-dimethyl-7-(trifluoromethyl)-9,12,13,14-tetrahydro-imidazo[4″,5″:5′,6′]benzo-[1′,2′:2,3]azocino[4,5,6-hi]indolizine-2-carbonyl)-2,6-difluorophenyl)-4-((1-methylcyclopropyl)amino)-but-2-enamide]: the half-maximal inhibitory concentration (IC50) in experiment [1] (setting [2]) was 11.5 nM; with MIA PaCa-2 cells (setting [3]) it was 1.1 nM.

`COCCn1c(C)nc2c3c(c(OC)cc21)-c1cccn2c(C(=O)c4cc(F)c(NC(=O)/C=C/CNC5(C)CCCC5)c(F)c4)cc(c12)CCO3` [Example 246, (E)-N-(2,6-difluoro-4-(7-methoxy-9-(2-methoxyethyl)-10-methyl-13,14-dihydro-9H-imidazo[4″,5″:5′,6′]benzo[1′,2′:2,3]oxocino[4,5,6-hi]indolizine-2-carbonyl)phenyl)-4-((1-methylcyclopentyl)amino)but-2-enamide]: the half-inhibitory concentration (IC50) in experiment [1] (setting [2]) is 13.6 nM; in the experiment on MIA PaCa-2 cells (setting [3]) it was 17.2 nM.

Regarding `COCCn1cnc2c3c(c(C(F)(F)F)cc21)-c1cccn2c(C(=O)c4cc(F)c(NC(=O)C=CCNC5(C)CC5)c(F)c4)cc(c12)CCN3C` [Example 215, (E)-N-(2,6-difluoro-4-(9-(2-methoxyethyl)-12-methyl-7-(trifluoromethyl)-9,12,13,14-tetrahydroimidazo[4″,5″:5′,6′]benzo[1′,2′:2,3]azocino[4,5,6-hi]indolizine-2-carbonyl)phenyl)-4-((1-methylcyclopropyl)amino)but-2-enamide], the IC50 in experiment [1] (setting [2]) was 18.3 nM; with MIA PaCa-2 cells (setting [3]), 3.4 nM.

For `CO[C@H]1CC[C@H](NC/C=C/C(=O)Nc2c(F)cc(C(=O)c3cc4c5c(cccn35)-c3c(C(F)(F)F)cc5c(nc(C)n5C)c3OC(C)C4)cc2F)CC1` (single isomer, unassigned) [Example 42-2, (E)-N-(2,6-difluoro-4-(9,10,13-trimethyl-7-(trifluoromethyl)-13,14-dihydro-9H-imidazo[4″,5″:5′,6′]benzo[1′,2′:2,3]oxocino[4,5,6-hi]indolizine-2-carbonyl)phenyl)-4-(((1r,4r)-4-methoxycyclohexyl)amino)but-2-enamide], the IC50 was found to be 1100 nM in experiment [1] (setting [6]) and 450 nM with MIA PaCa-2 cells (Table 3).

As for `CN1CCc2nc(C(=O)c3cc(F)c(NC(=O)/C=C/CNC4(C)CC4)c(F)c3)n3cccc(c23)-c2c(C(F)(F)F)cc3c(ncn3C)c21` (single isomer, unassigned) [Example 182], the IC50 in experiment [1] (setting [2]) stood at 35.2 nM; in the experiment on MIA PaCa-2 cells (setting [3]), 27.8 nM.

With `CN1CCc2cc(C(=O)c3cc(F)c(NC(=O)/C=C/CN4C[C@@H]5C[C@H]4CO5)c(F)c3)n3cccc(c23)-c2c(C(F)(F)F)cc3c(ncn3C)c21` [Example 208, (E)-4-((1S,4S)-2-oxa-5-azabicyclo[2.2.1]heptan-5-yl)-N-(4-(9,12-dimeth-yl-7-(trifluoromethyl)-9,12,13,14-tetrahydro-imidazo[4″,5″:5′,6′]benzo-[1′,2′:2,3]azocino[4,5,6-hi]indolizine-2-carbonyl)-2,6-difluorophenyl)but-2-enamide], the values for the IC50 (in experiment [1] (setting [2]); in the experiment on MIA PaCa-2 cells (setting [3])) were 35.4 nM and 11.4 nM, respectively.

As to `COc1cc(N2CCCC2=O)cc2c1-c1cccn3c(C(=O)c4cc(F)c(NC(=O)/C=C/CNC5(C)CC5)c(F)c4)cc(c13)CCO2` [Example 210], the IC50 is 38.1 nM in experiment [1] (setting [2]) and 60.3 nM in the experiment on MIA PaCa-2 cells (setting [3]).

`CO[C@H]1CC[C@H](NC/C=C/C(=O)Nc2c(F)cc(C(=O)c3cn4c5c(cccc35)-c3c(C)cc5c(nc(C)n5C)c3OCC4)cc2F)CC1` (single isomer, unassigned) [Example 14-1, (E)-N-(2,6-difluoro-4-(6,8,9-trimethyl-12,13-dihydro-8H-imidazo[4″,5″:3′,4′]benzo[1′,2′:7,8][1,4]oxazocino[6,5,4-hi]indole-2-carbonyl)phenyl)-4-(((11,4r)-4-methoxycyclohexyl)amino)but-2-enamide]: the IC50 worked out at 9 nM in experiment [1] (setting [4]) and 17 nM in the experiment with MIA PaCa-2 cells (Table 3).

`CC(=O)CC(C)(C)NC/C=C/C(=O)Nc1c(F)cc(C(=O)c2cn3c4c(cccc24)-c2c(C)cc4c(nc(C)n4C)c2N(C)CC3)cc1F` [Example 108]: the IC50 in experiment [1] (setting [5]) was found to be 54.2 nM; with MIA PaCa-2 cells (setting [3]) it was 332 nM.

For the compound `Cc1nc2c3c(c(C(F)(F)F)cc2n1C)-c1cccn2c(C(=O)c4cc(F)c(NC(=O)/C=C/CNC5(C)CCOC5)c(F)c4)cc(c12)CCO3` (centres unmarked) [Example 41], the IC50 in experiment [1] (setting [6]) worked out at 10 nM; in the experiment with MIA PaCa-2 cells (setting [7]), 4 nM.

As to `COCc1nc2c3c(c(C(F)(F)F)cc2n1C)-c1cccn2c(C(=O)c4cc(F)c(NC(=O)/C=C/CNC5(C)COC5)c(F)c4)cc(c12)CCO3` (single isomer, unassigned) [Example 99, (E)-N-(2,6-difluoro-4-(10-(methoxymethyl)-9-meth-yl-7-(trifluoromethyl)-13,14-dihydro-9H-imidazo[4″,5″:5′,6′]benzo-[1′,2′:2,3]oxocino[4,5,6-hi]indolizine-2-carbonyl)-phenyl)-4-((3-methyl-oxetan-3-yl)amino)-but-2-enamide], the results for the IC50 (in experiment [1] (setting [2]); in the experiment on MIA PaCa-2 cells (setting [3])) were 12.2 nM and 9.79 nM, respectively.

Regarding `COCCn1c(C)nc2c3c(c(OC)cc21)-c1cccn2c(C(=O)c4cc(F)c(NC(=O)C=CCNC5(C)CC5)c(F)c4)cc(c12)CCS3` [Example 240, (E)-N-(2,6-difluoro-4-(7-methoxy-9-(2-methoxyethyl)-10-methyl-13,14-dihydro-9H-imidazo[4″,5″:5′,6′]benzo[1′,2′:2,3]thiocino[4,5,6-hi]indolizine-2-carbonyl)phenyl)-4-((1-methylcyclopropyl)amino)but-2-enamide], the IC50 was 8.93 nM in experiment [1] (setting [2]) and 14.5 nM with MIA PaCa-2 cells (setting [3]).

`Cn1cnc2c3c(c(C(F)(F)F)cc21)-c1cccc2c(C(=O)c4cc(F)c(NC(=O)/C=C/CNC5(C)COC5)c(F)c4)cn(c12)CCO3` [Example 80, (E)-N-(2,6-difluoro-4-(8-methyl-6-(trifluorometh-yl)-12,13-dihydro-8H-imidazo[4″,5″:3′,4′]benzo-[1′,2′:7,8][1,4]oxazocino-[6,5,4-hi]indole-2-carbon-yl)phenyl)-4-((3-methyl-oxetan-3-yl)amino)but-2-enamide]: the IC50 was found to be 28.3 nM in experiment [1] (setting [5]) and 22.2 nM with MIA PaCa-2 cells (setting [3]).

On to `CO[C@H]1CC[C@H](NC/C=C/C(=O)Nc2c(F)cc(C(=O)c3cn4c5c(cccc35)-c3c(C(F)(F)F)cc5c(nc(C)n5C)c3CCCC4)cc2F)CC1` [Example 29, (E)-N-(4-(8,9-dimethy 1-6-(trifluoromethyl)-11,12,13,14-tetrahydro-8H-imidazo[4″,5″:3′,4′]benzo[1′,2:4,5]azonino[3,2,1-hi]indole-2-carbonyl)-2,6-difluorophenyl)-4-(((1r,4r)-4-methoxycyclohexyl)amino)but-2-enamide], for which the IC50 came to 220 nM in experiment [1] (setting [4]) and 53 nM with MIA PaCa-2 cells (setting [7]).

As for `CO[C@H]1CC[C@H](NC/C=C/C(=O)Nc2c(F)cc(C(=O)c3cn4c5c(cccc35)-c3c(F)cccc3OCC4)cc2F)CC1` [Example 7], the results for the IC50 (in experiment [1] (setting [4]); with MIA PaCa-2 cells (setting [7])) were 840 nM and 1100 nM, respectively.
